Test results: ChEMBL document CHEMBL1201862, “PubChem BioAssay data set” (2004)
Active and inactive are the calls of the source. Cut-off read from the data, not from the text of the source, for most assays here: actives have a measured EC50 and inactives only a lower limit.

Legend:
[1] = target: Glyceraldehyde-3-phosphate dehydrogenase (Homo sapiens, UniProt P04406)
cells = type: functional, cell-based
[2] = inhibitors of SNCA 5'UTR-driven translation, confirmation, luminescence, H4 neuroglioblastoma cells, dose confirmation (AID 2454); type: functional, cell-based;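 note: H4 neuroglioblastoma cells carrying an alpha-synuclein 5'UTR luciferase reporter; potency for inhibition of the luciferase signal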
[3] = inhibitors of firefly luciferase expression or activity, dose response, H4 neuroglioma cells, luminescence (AID 1990); type: functional, cell-based
[4] = target: Luciferin 4-monooxygenase (Photinus pyralis, UniProt P08659); assay: Counter Screen for Luciferase-based Assay Positives. [Related pubchem assays: 620, 618, 411 ]
Sequence of Luciferin 4-monooxygenase (P08659 whole entry): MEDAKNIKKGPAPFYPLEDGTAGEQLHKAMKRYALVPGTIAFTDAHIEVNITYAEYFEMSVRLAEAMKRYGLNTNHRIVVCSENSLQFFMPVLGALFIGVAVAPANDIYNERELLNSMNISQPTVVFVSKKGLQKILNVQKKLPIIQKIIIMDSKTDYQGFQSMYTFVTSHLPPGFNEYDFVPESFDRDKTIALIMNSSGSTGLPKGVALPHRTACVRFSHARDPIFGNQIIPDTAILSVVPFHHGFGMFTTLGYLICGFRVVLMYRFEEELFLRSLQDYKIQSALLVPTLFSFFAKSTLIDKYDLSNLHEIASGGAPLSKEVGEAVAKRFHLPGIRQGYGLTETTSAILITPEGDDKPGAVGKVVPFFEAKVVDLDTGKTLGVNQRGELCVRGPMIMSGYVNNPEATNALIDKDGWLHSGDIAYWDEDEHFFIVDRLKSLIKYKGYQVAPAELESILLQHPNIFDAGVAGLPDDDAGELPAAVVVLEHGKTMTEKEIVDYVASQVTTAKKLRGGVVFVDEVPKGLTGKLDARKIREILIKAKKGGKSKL

HT-1080 = assay: cytotoxicity in HT1080 fibrosarcoma cells, cell-based, fluorescence readout (AID 620); type: functional; conditions: Homo sapiens
[5] = inhibitors of SNCA 5'UTR-driven reporter translation, confirmation, H4 neuroglioma cells, luminescence (AID 1988); type: functional, cell-based
[6] = luciferase reporter signal reduction – luminescence, H4-C neuroglioblastoma cells, dose response (AID 2458); type: functional, cell-based;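 note: H4 neuroglioblastoma cells stably carrying a luciferase reporter gene fusion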
[7] = Luminescence Cell-Based Dose Response HTS to Identify Inhibitors of 5'UTR Stem-Loop Driven Prion Protein mRNA Translation in H4 Neuroglioblastoma Cells. [Related pubchem assays: 1827 (Project Summary), 1813 (Primary HTS)]; type: functional
BJ [8] = assay: cells; type: functional, cell-based; conditions: Homo sapiens
[9] = cytotoxicity toward DRD oncogenic fibroblasts, dose response, cell-based, non-viral oncogenic, luminescence (AID 1934); type: functional; conditions: Homo sapiens
BJ [10] = assay: cytotoxicity toward BJ-TERT-LT-ST fibroblasts, dose response, cell-based, RAS-independent, luminescence (AID 1935); type: functional; conditions: Homo sapiens;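 note: BJ fibroblasts immortalized with TERT plus LT and ST oncogenes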
[11] = reduction of Shn3 3'UTR firefly luciferase signal, dose response, Schnurri-3 inhibitor project, cell-based, Clone20 osteoblasts, cherry-pick, set 2 (AID 720490); type: functional;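 note: actives lower the luminescence signal as inhibitors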
[12] = HepG2 cell cytotoxicity, dose response, cytotoxicity control for Shn3 inhibitor project, CellTiter-Glo, cherry-picked (AID 624134); type: functional, cell-based
[13] = Shn3 3'UTR reporter inhibitors, dose response, cell-based, Clone20 osteoblasts, firefly luciferase, cherry-picked (AID 624132); type: functional;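 note: firefly luciferase luminescence from reporter carrying the Shn3 3'UTR in osteoblasts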
BJ [14] = assay: cytotoxicity toward BJ-TERT fibroblasts, dose response, cell-based, RAS-independent, luminescence (AID 1933); type: functional; conditions: Homo sapiens
Cytochrome P450 3A4 = Cytochrome P450 3A4 (Homo sapiens, UniProt P08684); conditions: Potency;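 note: confirmatory qHTS run detecting inhibitors and substrates of CYP3A4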
Sequence of Cytochrome P450 3A4 (P08684 whole entry): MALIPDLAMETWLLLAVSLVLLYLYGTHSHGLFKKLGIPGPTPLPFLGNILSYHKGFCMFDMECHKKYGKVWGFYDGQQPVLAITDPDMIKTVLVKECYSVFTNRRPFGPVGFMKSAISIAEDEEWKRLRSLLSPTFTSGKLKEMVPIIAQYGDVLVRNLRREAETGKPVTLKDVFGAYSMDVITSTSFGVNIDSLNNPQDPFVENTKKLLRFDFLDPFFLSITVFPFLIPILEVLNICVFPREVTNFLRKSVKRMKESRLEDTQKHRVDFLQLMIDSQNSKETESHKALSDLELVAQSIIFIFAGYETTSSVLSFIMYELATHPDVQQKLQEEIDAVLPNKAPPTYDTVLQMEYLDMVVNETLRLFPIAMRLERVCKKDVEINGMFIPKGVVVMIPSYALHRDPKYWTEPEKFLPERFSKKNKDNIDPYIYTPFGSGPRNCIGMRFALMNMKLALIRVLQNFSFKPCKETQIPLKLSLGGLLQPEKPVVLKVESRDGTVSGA

[15] = cytotoxicity in HEK-293T cells, dose response, cytotoxicity control for BCR NF-kB inhibitor project, luminescence, B-cell screen hits (AID 489021); type: functional, cell-based;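 note: HEK-293T cells carrying an NF-kB luciferase reporter; cells exposed to compound for about 14 hours before viability readout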
HeLa = assay: Cytotoxicity counterscreen assay for transcriptional activators of heat shock protein 70 (Hsp70). [Related pubchem assays: 1203, 1252 ]; type: functional; conditions: Homo sapiens;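 note: cells exposed to compound for 16 hours before readout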
[16] = A Cell Based Secondary Assay To Explore Cytotoxicity of Compounds that Sensitize Mycobacterium Tuberculosis to Beta-Lactam Antibiotics.; type: functional
[17] = target: T1, Calpain-2 catalytic subunit (Sus scrofa, UniProt P43367); assay: pig calpain II inhibitor potency, dose response, biochemical, fluorogenic peptide substrate (AID 1420); type: functional
T1 sequence (P43367 whole entry): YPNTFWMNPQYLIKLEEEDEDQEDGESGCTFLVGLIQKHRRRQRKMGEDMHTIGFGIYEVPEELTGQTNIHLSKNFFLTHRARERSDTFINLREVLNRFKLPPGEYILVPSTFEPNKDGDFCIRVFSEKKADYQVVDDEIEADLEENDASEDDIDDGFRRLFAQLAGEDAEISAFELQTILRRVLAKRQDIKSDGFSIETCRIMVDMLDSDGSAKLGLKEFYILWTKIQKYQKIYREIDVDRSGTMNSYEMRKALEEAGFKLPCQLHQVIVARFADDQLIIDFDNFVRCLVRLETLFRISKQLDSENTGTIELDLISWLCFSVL

Sequence of Glyceraldehyde-3-phosphate dehydrogenase (P04406 whole entry): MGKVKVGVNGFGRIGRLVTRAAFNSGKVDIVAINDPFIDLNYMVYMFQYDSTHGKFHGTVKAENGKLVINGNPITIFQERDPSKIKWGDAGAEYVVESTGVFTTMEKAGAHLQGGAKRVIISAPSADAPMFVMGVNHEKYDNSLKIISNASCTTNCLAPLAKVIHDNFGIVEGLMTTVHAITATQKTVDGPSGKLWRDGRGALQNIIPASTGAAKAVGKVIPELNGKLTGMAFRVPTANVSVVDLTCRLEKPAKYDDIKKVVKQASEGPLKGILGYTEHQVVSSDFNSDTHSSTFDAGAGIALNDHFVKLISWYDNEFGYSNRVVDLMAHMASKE

With `CCOC(=O)C1CCCCN1C(=O)CCc1c(C)nc2cc(-c3ccccc3)nn2c1C` (stereo not drawn) the IC50 [1] was > 100 µM (not active), the EC50 (cells) was > 12 µM (not active) and the EC50 [2] was 1.33 µM (active). The EC50 [3] was < 0.1 µM (active), the EC50 [4] was > 100 µM (not active) and the EC50 (HT-1080) was > 50 µM (not active). For the same compound, the EC50 [5] was < 0.1 µM (active), the EC50 [6] was 0.972 µM (active) and the EC50 [7] was 11.1 µM (active).
In the case of `COc1ccc(OCc2cccc(C(=O)O)c2)cc1`, the EC50 (cells) is reported as 0.307 µM (active), the EC50 (BJ [8]) is reported as 8.86 µM (active) and the EC50 [2] is reported as 0.267 µM (active). For the same compound, the EC50 [3] was 0.305 µM (active), the EC50 [9] was 9.09 µM (inconclusive) and the EC50 (BJ [10]) was > 150 µM (inconclusive). For the same compound, the AC50 [11] was 2.01 µM (active), the AC50 [12] was > 70 µM (inactive) and the EC50 [5] was < 0.1 µM (active). For the same compound, the AC50 [13] was 1.39 µM (active), the EC50 [6] was 0.26 µM (active) and the EC50 [7] was 0.121 µM (active). The EC50 (BJ [14]) was 18.8 µM (active).
With `Nc1cc(=O)[nH]c(=O)n1CC1CC1` the AC50 (Cytochrome P450 3A4) was 3.98 µM (inconclusive).
For `COc1ccc(N=C(S)NCc2ccccc2)c(OC)c1`, the IC50 [15] was > 80 µM (inactive).
For `COCCn1c(C)cc(C(=O)CSc2nc3ccccc3c(=O)n2C(C)COC)c1C` (stereo not drawn), the CC50 (HeLa) was > 99 µM (not active).
With `CCc1ccc2c(c1)C(c1ccc([N+](=O)[O-])cc1)=NNC(c1ccc(C)cc1)=N2` the CC50 [16] was > 40 µM (active) and the IC50 [17] was 15.6 µM (not active).
In the case of `CCOc1cc(N2CCOCC2)c(OCC)cc1NC(=O)COc1cccc(CC)c1`, the CC50 [16] is reported as > 40 µM (active).
